# In patent US20020137929A1, “1 - (3-heterocyclylphenyl) isothiourea, -isourea, -guanidine and -amidine herbicidal agents” (Intellectual Property Department, BASF Aktiengesellschaft, priority 1998, published 2002):
# Columns and labels:
# [1] = tested on: CHEAL (Lambsquarters, Common); test: Preemergence herbicidal evaluation; type: in vivo, Chenopodium album; conditions: rated 4-5 weeks after treatment
# Procedure, shortened: (§1)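 Greenhouse preemergence test: seed-soil mix sown on ~1 inch soil; aqueous acetone spray at equivalent of ~0.0156–0.500 kg/ha; greenhouse-held and watered; scored 0–9 visually at 4–5 weeks.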
# CASOB (Sicklepod) [2] = test: Preemergence herbicidal evaluation; type: in vivo, Cassia obtusifolia; conditions: rated 4-5 weeks after treatment
# Procedure, shortened: as §1
# [3] = tested on: IPOHE (Morningglory, Ivyleaf); test: Postemergence herbicidal evaluation; type: in vivo, Ipomoea hederacea
# Procedure, shortened: (§2)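 Visual 0–9 rating versus control (stand, vigor, malformation, size, chlorosis, overall appearance), taken four to five weeks post-spray. Two-week-old seedlings received roughly 0.0156–0.500 kg/ha active in acetone/water (50/50) with 0.5% TWEEN 20 via nozzle at 40 psi.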
# [4] = tested on: GLXMAW (Soybean, Williams); test: Preemergence herbicidal evaluation; type: in vivo, Glycine max, (L.) Merr. cv Williams; conditions: rated 4-5 weeks after treatment
# Procedure, shortened: as §1
# ECHCG (Barnyardgrass) = test: Postemergence herbicidal evaluation; type: in vivo, Echinochloa crus-galli
# Procedure, shortened: as §2
# ORYSAT (Rice, Tebonnet) = test: Preemergence herbicidal evaluation; type: in vivo, Oryza sativa, (L.) Tebonnet; conditions: rated 4-5 weeks after treatment
# Procedure, shortened: as §1
# [5] = tested on: TRZAWR (Wheat, Winter, cv Riband); test: Postemergence herbicidal evaluation; type: in vivo, Triticum aestivum
# Procedure, shortened: as §2
# [6] = tested on: GLXMAW (Soybean, Williams); test: Postemergence herbicidal evaluation; type: in vivo, Glycine max, (L.) Merr. cv Williams
# Procedure, shortened: as §2
# AMBEL (Ragweed, Common) [7] = test: Preemergence herbicidal evaluation; type: in vivo, Ambrosia artemisifolia; conditions: rated 4-5 weeks after treatment
# Procedure, shortened: as §1
# [8] = tested on: SAGPY (Arrowhead (Pygmaea)); test: Preemergence weed control under flooded paddy conditions; type: in vivo, Sagittaria pygmaea; conditions: rated 3-4 weeks after treatment
# Procedure, shortened: (§3)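 Seeds or propagules sown in silt loam kept flooded 1.5-3 cm; compounds in 50/50 acetone/water pipetted into flood water at about 0.0313 to 0.500 kg/ha. Greenhouse; visual 0-9 rating versus untreated control 3-4 weeks after treatment.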
# AMBEL (Ragweed, Common) [9] = test: Postemergence herbicidal evaluation; type: in vivo, Ambrosia artemisifolia
# Procedure, shortened: as §2
# [10] = tested on: IPOHE (Morningglory, Ivyleaf); test: Preemergence herbicidal evaluation; type: in vivo, Ipomoea hederacea; conditions: rated 4-5 weeks after treatment
# Procedure, shortened: as §1
# ABUTH (Velvetleaf) = test: Preemergence herbicidal evaluation; type: in vivo, Abutilon theophrasti; conditions: rated 4-5 weeks after treatment
# Procedure, shortened: as §1
# MOOVA (Monochoria) = test: Preemergence weed control under flooded paddy conditions; type: in vivo, Monochoria vaginalis; conditions: rated 3-4 weeks after treatment
# Procedure, shortened: as §3
# CASOB (Sicklepod) [11] = test: Postemergence herbicidal evaluation; type: in vivo, Cassia obtusifolia
# Procedure, shortened: as §2
# [12] = tested on: CHEAL (Lambsquarters, Common); test: Postemergence herbicidal evaluation; type: in vivo, Chenopodium album
# Procedure, shortened: as §2
structure (smiles),measurement,setting,value
"CCOC(=O)CN1C(=O)C(CC(=O)OC)S/C1=N/c1cc(-n2c(=O)cc(C(F)(F)F)n(C)c2=O)c(F)cc1Cl (stereo not drawn) [Compound 54, 2-{{2-Chloro-5-[3,6-dihydro-3-methyl-2,6-dioxo-4-(trifluoromethyl)-1(2H)-pyrimidinyl]-4-fluorophenyl}imino}-4-oxo-3,5-thiazolidinediacetic acid, 3-ethyl methyl ester]",Preemergence herbicidal rating CHEAL,[1]; rate 0.0156 kg/ha,4.5
same,Preemergence herbicidal rating CHEAL,[1]; rate 0.0313 kg/ha,9.0
same,Preemergence herbicidal rating CHEAL,[1]; rate 0.0625 kg/ha,9.0
same,Preemergence herbicidal rating CHEAL,[1]; rate 0.1250 kg/ha,9.0
same,Preemergence herbicidal rating CHEAL,[1]; rate 0.2500 kg/ha,9.0
same,Preemergence herbicidal rating CHEAL,[1]; rate 0.5000 kg/ha,9.0
same,Preemergence herbicidal rating CASOB,CASOB (Sicklepod) [2]; rate 0.0156 kg/ha,0.0
same,Preemergence herbicidal rating CASOB,CASOB (Sicklepod) [2]; rate 0.0313 kg/ha,0.0
same,Preemergence herbicidal rating CASOB,CASOB (Sicklepod) [2]; rate 0.0625 kg/ha,0.0
same,Preemergence herbicidal rating CASOB,CASOB (Sicklepod) [2]; rate 0.1250 kg/ha,4.5
same,Preemergence herbicidal rating CASOB,CASOB (Sicklepod) [2]; rate 0.2500 kg/ha,6.0
same,Preemergence herbicidal rating CASOB,CASOB (Sicklepod) [2]; rate 0.5000 kg/ha,9.0
same,Postemergence herbicidal rating IPOHE,[3]; Rate 0.0158 kg/ha,9.0
same,Postemergence herbicidal rating IPOHE,[3]; Rate 0.0315 kg/ha,9.0
same,Postemergence herbicidal rating IPOHE,[3]; Rate 0.0630 kg/ha,9.0
same,Preemergence herbicidal rating GLXMAW,[4]; rate 0.0156 kg/ha,0.0
same,Preemergence herbicidal rating GLXMAW,[4]; rate 0.0313 kg/ha,0.5
same,Preemergence herbicidal rating GLXMAW,[4]; rate 0.0625 kg/ha,1.5
same,Preemergence herbicidal rating GLXMAW,[4]; rate 0.1250 kg/ha,3.0
same,Preemergence herbicidal rating GLXMAW,[4]; rate 0.2500 kg/ha,7.5
same,Preemergence herbicidal rating GLXMAW,[4]; rate 0.5000 kg/ha,9.0
same,Postemergence herbicidal rating ECHCG,ECHCG (Barnyardgrass); Rate 0.0158 kg/ha,9.0
same,Postemergence herbicidal rating ECHCG,ECHCG (Barnyardgrass); Rate 0.0315 kg/ha,9.0
same,Postemergence herbicidal rating ECHCG,ECHCG (Barnyardgrass); Rate 0.0630 kg/ha,9.0
same,Preemergence herbicidal rating ORYSAT,"ORYSAT (Rice, Tebonnet); rate 0.0156 kg/ha",0.0
same,Preemergence herbicidal rating ORYSAT,"ORYSAT (Rice, Tebonnet); rate 0.0313 kg/ha",0.0
same,Preemergence herbicidal rating ORYSAT,"ORYSAT (Rice, Tebonnet); rate 0.0625 kg/ha",1.0
same,Preemergence herbicidal rating ORYSAT,"ORYSAT (Rice, Tebonnet); rate 0.1250 kg/ha",2.0
same,Preemergence herbicidal rating ORYSAT,"ORYSAT (Rice, Tebonnet); rate 0.2500 kg/ha",4.5
same,Preemergence herbicidal rating ORYSAT,"ORYSAT (Rice, Tebonnet); rate 0.5000 kg/ha",6.0
same,Postemergence herbicidal rating TRZAWR,[5]; Rate 0.0158 kg/ha,5.0
same,Postemergence herbicidal rating TRZAWR,[5]; Rate 0.0315 kg/ha,7.0
same,Postemergence herbicidal rating TRZAWR,[5]; Rate 0.0630 kg/ha,9.0
same,Postemergence herbicidal rating GLXMAW,[6]; Rate 0.0158 kg/ha,9.0
same,Postemergence herbicidal rating GLXMAW,[6]; Rate 0.0315 kg/ha,9.0
same,Postemergence herbicidal rating GLXMAW,[6]; Rate 0.0630 kg/ha,9.0
same,Preemergence herbicidal rating AMBEL,"AMBEL (Ragweed, Common) [7]; rate 0.0156 kg/ha",0.0
same,Preemergence herbicidal rating AMBEL,"AMBEL (Ragweed, Common) [7]; rate 0.0313 kg/ha",0.5
same,Preemergence herbicidal rating AMBEL,"AMBEL (Ragweed, Common) [7]; rate 0.0625 kg/ha",8.0
same,Preemergence herbicidal rating AMBEL,"AMBEL (Ragweed, Common) [7]; rate 0.1250 kg/ha",9.0
same,Preemergence herbicidal rating AMBEL,"AMBEL (Ragweed, Common) [7]; rate 0.2500 kg/ha",9.0
same,Preemergence herbicidal rating AMBEL,"AMBEL (Ragweed, Common) [7]; rate 0.5000 kg/ha",9.0
same,Herbicidal rating SAGPY,[8]; 0.0313 kg/ha,0.0
same,Herbicidal rating SAGPY,[8]; 0.0625 kg/ha,0.0
same,Herbicidal rating SAGPY,[8]; 0.1250 kg/ha,0.0
same,Herbicidal rating SAGPY,[8]; 0.2500 kg/ha,2.0
same,Postemergence herbicidal rating AMBEL,"AMBEL (Ragweed, Common) [9]; Rate 0.0158 kg/ha",9.0
same,Postemergence herbicidal rating AMBEL,"AMBEL (Ragweed, Common) [9]; Rate 0.0315 kg/ha",9.0
same,Postemergence herbicidal rating AMBEL,"AMBEL (Ragweed, Common) [9]; Rate 0.0630 kg/ha",9.0
same,Preemergence herbicidal rating IPOHE,[10]; rate 0.0156 kg/ha,1.5
same,Preemergence herbicidal rating IPOHE,[10]; rate 0.0313 kg/ha,6.0
same,Preemergence herbicidal rating IPOHE,[10]; rate 0.0625 kg/ha,9.0
same,Preemergence herbicidal rating IPOHE,[10]; rate 0.1250 kg/ha,7.5
same,Preemergence herbicidal rating IPOHE,[10]; rate 0.2500 kg/ha,9.0
same,Preemergence herbicidal rating IPOHE,[10]; rate 0.5000 kg/ha,9.0
same,Preemergence herbicidal rating ABUTH,ABUTH (Velvetleaf); rate 0.0156 kg/ha,4.5
same,Preemergence herbicidal rating ABUTH,ABUTH (Velvetleaf); rate 0.0313 kg/ha,7.5
same,Preemergence herbicidal rating ABUTH,ABUTH (Velvetleaf); rate 0.0625 kg/ha,9.0
same,Preemergence herbicidal rating ABUTH,ABUTH (Velvetleaf); rate 0.1250 kg/ha,9.0
same,Preemergence herbicidal rating ABUTH,ABUTH (Velvetleaf); rate 0.2500 kg/ha,9.0
same,Preemergence herbicidal rating ABUTH,ABUTH (Velvetleaf); rate 0.5000 kg/ha,9.0
same,Herbicidal rating MOOVA,MOOVA (Monochoria); 0.0313 kg/ha,0.0
same,Herbicidal rating MOOVA,MOOVA (Monochoria); 0.0625 kg/ha,0.0
same,Herbicidal rating MOOVA,MOOVA (Monochoria); 0.1250 kg/ha,6.0
same,Herbicidal rating MOOVA,MOOVA (Monochoria); 0.2500 kg/ha,6.0
same,Postemergence herbicidal rating CASOB,CASOB (Sicklepod) [11]; Rate 0.0158 kg/ha,5.0
same,Postemergence herbicidal rating CASOB,CASOB (Sicklepod) [11]; Rate 0.0315 kg/ha,6.0
same,Postemergence herbicidal rating CASOB,CASOB (Sicklepod) [11]; Rate 0.0630 kg/ha,9.0
same,Postemergence herbicidal rating CHEAL,[12]; Rate 0.0158 kg/ha,9.0
same,Postemergence herbicidal rating CHEAL,[12]; Rate 0.0315 kg/ha,9.0
same,Postemergence herbicidal rating CHEAL,[12]; Rate 0.0630 kg/ha,9.0
"Cn1c(C(F)(F)F)cc(=O)n(-c2cc(/N=C3/SC(CC(=O)O)C(=O)N3CC(=O)O)c(Cl)cc2F)c1=O (stereo not drawn) [Compound 61, 2-{{2-Chloro-5-[3,6-dihydro-3-methyl-2,6-dioxo-4-(trifluoromethyl)-1(2H)-pyrimidinyl]-4-fluorophenyl}imino}-4-oxo-3,5-thiazolidinediacetic acid]",Preemergence herbicidal rating CHEAL,[1]; rate 0.1250 kg/ha,7.0
same,Preemergence herbicidal rating CHEAL,[1]; rate 0.2500 kg/ha,9.0
same,Preemergence herbicidal rating CASOB,CASOB (Sicklepod) [2]; rate 0.1250 kg/ha,0.0
same,Preemergence herbicidal rating CASOB,CASOB (Sicklepod) [2]; rate 0.2500 kg/ha,1.0
same,Postemergence herbicidal rating IPOHE,[3]; Rate 0.0158 kg/ha,1.0
same,Postemergence herbicidal rating IPOHE,[3]; Rate 0.0315 kg/ha,2.0
same,Postemergence herbicidal rating IPOHE,[3]; Rate 0.0630 kg/ha,1.0
same,Preemergence herbicidal rating GLXMAW,[4]; rate 0.1250 kg/ha,0.0
same,Preemergence herbicidal rating GLXMAW,[4]; rate 0.2500 kg/ha,1.0
same,Postemergence herbicidal rating ECHCG,ECHCG (Barnyardgrass); Rate 0.0158 kg/ha,0.0
same,Postemergence herbicidal rating ECHCG,ECHCG (Barnyardgrass); Rate 0.0315 kg/ha,0.0
same,Postemergence herbicidal rating ECHCG,ECHCG (Barnyardgrass); Rate 0.0630 kg/ha,0.0
same,Preemergence herbicidal rating ORYSAT,"ORYSAT (Rice, Tebonnet); rate 0.1250 kg/ha",0.0
same,Preemergence herbicidal rating ORYSAT,"ORYSAT (Rice, Tebonnet); rate 0.2500 kg/ha",1.0
same,Postemergence herbicidal rating TRZAWR,[5]; Rate 0.0158 kg/ha,0.5
same,Postemergence herbicidal rating TRZAWR,[5]; Rate 0.0315 kg/ha,0.5
same,Postemergence herbicidal rating TRZAWR,[5]; Rate 0.0630 kg/ha,1.5
same,Postemergence herbicidal rating GLXMAW,[6]; Rate 0.0158 kg/ha,2.0
same,Postemergence herbicidal rating GLXMAW,[6]; Rate 0.0315 kg/ha,3.0
same,Postemergence herbicidal rating GLXMAW,[6]; Rate 0.0630 kg/ha,4.0
same,Preemergence herbicidal rating AMBEL,"AMBEL (Ragweed, Common) [7]; rate 0.1250 kg/ha",0.0
same,Preemergence herbicidal rating AMBEL,"AMBEL (Ragweed, Common) [7]; rate 0.2500 kg/ha",0.0
same,SAGPY herbicidal effect rating,[8]; 0.2500 kg/ha,0.0
same,Postemergence herbicidal rating AMBEL,"AMBEL (Ragweed, Common) [9]; Rate 0.0158 kg/ha",0.0
same,Postemergence herbicidal rating AMBEL,"AMBEL (Ragweed, Common) [9]; Rate 0.0315 kg/ha",0.0
same,Postemergence herbicidal rating AMBEL,"AMBEL (Ragweed, Common) [9]; Rate 0.0630 kg/ha",0.0
same,Preemergence herbicidal rating IPOHE,[10]; rate 0.1250 kg/ha,0.0
same,Preemergence herbicidal rating IPOHE,[10]; rate 0.2500 kg/ha,0.0
same,Preemergence herbicidal rating ABUTH,ABUTH (Velvetleaf); rate 0.1250 kg/ha,0.0
same,Preemergence herbicidal rating ABUTH,ABUTH (Velvetleaf); rate 0.2500 kg/ha,1.0
same,MOOVA herbicidal effect rating,MOOVA (Monochoria); 0.2500 kg/ha,0.0
same,Postemergence herbicidal rating CASOB,CASOB (Sicklepod) [11]; Rate 0.0158 kg/ha,0.0
same,Postemergence herbicidal rating CASOB,CASOB (Sicklepod) [11]; Rate 0.0315 kg/ha,0.0
same,Postemergence herbicidal rating CASOB,CASOB (Sicklepod) [11]; Rate 0.0630 kg/ha,0.0
same,Postemergence herbicidal rating CHEAL,[12]; Rate 0.0158 kg/ha,0.0
same,Postemergence herbicidal rating CHEAL,[12]; Rate 0.0315 kg/ha,0.0
same,Postemergence herbicidal rating CHEAL,[12]; Rate 0.0630 kg/ha,0.0
